From US20110098296A1, “Thiazole And Oxazole Kinase Inhibitors” (priority 2007, published 2011)
Where a name gives a salt, the structure may show the parent alone.

Experiments:
[1] = target: T1, EGFR (Homo sapiens, UniProt P00533); assay: EGFR substrate phosphorylation assay (HTRF); format: biochemical; conditions: Method (A): Enzyme Mix incubated with compound at 20° C. for 1 hr, reaction started by adding Substrate Mix
T1 construct: made in house; host or cells: baculovirus expression system
Outline: (§1)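 Baculovirus-expressed kinase (0.8 nM EGFR or 10 nM ErbB2 in enzyme mix) with Peptide C 0.8 μM and ATP 20 μM (substrate-mix levels), MOPS pH 7.5, MnCl2; 90 min, 20 °C, HTRF anti-phosphotyrosine. Method A adds 1 h enzyme–compound preincubation; B none. pIC50, final compound 0.00027–47.6 μM.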

[2] = target: T2, ErbB2 (Homo sapiens, UniProt P04626); assay: ErbB-2 substrate phosphorylation assay (HTRF); format: biochemical; conditions: Method (A): Enzyme Mix incubated with compound at 20° C. for 1 hr, reaction started by adding Substrate Mix
T2 construct: made in house; host or cells: baculovirus expression system
T2 sequence (P04626 23-1255): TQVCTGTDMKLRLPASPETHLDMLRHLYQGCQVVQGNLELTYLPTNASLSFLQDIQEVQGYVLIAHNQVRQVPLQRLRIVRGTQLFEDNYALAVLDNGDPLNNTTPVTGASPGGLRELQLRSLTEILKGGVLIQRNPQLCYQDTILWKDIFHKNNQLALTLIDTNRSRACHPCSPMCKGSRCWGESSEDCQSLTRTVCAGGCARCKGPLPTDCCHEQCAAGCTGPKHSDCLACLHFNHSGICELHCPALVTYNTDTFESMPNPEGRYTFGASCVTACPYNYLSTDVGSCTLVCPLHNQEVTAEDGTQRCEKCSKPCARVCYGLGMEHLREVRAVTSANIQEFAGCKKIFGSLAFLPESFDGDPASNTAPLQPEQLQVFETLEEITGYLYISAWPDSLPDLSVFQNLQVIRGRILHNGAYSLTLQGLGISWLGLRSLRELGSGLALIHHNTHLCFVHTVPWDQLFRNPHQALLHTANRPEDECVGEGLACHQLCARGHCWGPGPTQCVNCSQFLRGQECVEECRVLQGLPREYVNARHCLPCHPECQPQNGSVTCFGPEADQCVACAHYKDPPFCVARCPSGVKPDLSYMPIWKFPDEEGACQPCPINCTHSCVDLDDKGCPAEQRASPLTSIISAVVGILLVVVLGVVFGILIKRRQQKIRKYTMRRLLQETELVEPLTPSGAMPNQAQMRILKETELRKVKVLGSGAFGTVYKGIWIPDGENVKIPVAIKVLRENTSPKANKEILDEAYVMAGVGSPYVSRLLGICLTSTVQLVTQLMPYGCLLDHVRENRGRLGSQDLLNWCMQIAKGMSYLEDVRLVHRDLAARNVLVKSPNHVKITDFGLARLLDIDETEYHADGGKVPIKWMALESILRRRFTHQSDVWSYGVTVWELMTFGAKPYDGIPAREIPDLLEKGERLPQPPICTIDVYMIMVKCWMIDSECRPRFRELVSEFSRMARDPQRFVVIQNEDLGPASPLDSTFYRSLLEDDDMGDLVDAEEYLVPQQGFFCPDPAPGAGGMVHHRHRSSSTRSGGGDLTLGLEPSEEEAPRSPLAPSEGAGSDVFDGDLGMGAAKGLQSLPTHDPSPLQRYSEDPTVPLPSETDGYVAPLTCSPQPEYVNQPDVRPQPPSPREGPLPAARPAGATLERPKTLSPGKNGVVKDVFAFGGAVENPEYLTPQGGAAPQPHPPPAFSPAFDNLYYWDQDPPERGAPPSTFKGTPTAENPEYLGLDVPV
Outline: as §1

[3] = tested on: HN5 tumor cells; assay: Method C: Cell Growth Inhibition Assay (CellTiter-Glo), HN5; format: cell-based; conditions: Homo sapiens, 72 h, 3 days, 4-parameter fit
Protocol: (§2) Human breast tumor cells (BT474) were cultured in RPMI (Mediatech 50-011-PB), containing 10% FBS (JRH Biosciences 12176) and 1% penicillin-streptomycin (Invitrogen 15140). Human head and neck tumor cells (HN5) were cultured in high glucose DMEM (Mediatech 50-013-PB) containing 10% FBS and 1% penicillin-streptomycin. Human colon tumor cells (Colo205) were cultured in RPMI (Mediatech 50-020-PB) containing 10% FBS and 1% penicillin-streptomycin. Human melanoma cancer cells (SK-MEL-28) were cultured in EMEM with nonessential amino acids (Mediatech 50-011-PB) containing 10% FBS, 1% sodium pyruvate (JT Baker 3354-04), and 1% penicillin-streptomycin. Human melanoma cancer cells (A375P F11s) were cultured in RPMI (Mediatech 50-020-PB) containing 10% FBS, 1% sodium pyruvate, and 1% penicillin-streptomycin. Human colon cancer cells (HT-29) were cultured in high glucose DMEM (Mediatech 50-013-PB) containing 10% FBS and 1% penicillin-streptomycin. Human melanoma cancer cells (SK-MEL-3) were cultured in McCoy's 5A (50-025-PB) containing 15% FBS, and 1% penicillin-streptomycin. All cell lines were maintained at 37° C. in a humidified 5% CO2, 95% air incubator. Cells were harvested using trypsin/EDTA (Invitrogen 25200), counted using an haemocytometer, and plated. For 96-well assays (using white full-area NUNC plates cat. #136102), cells were plated in 105 μL at the following densities (cells/well): HN5, 500; Colo205, 500; SK-MEL-28, 500; A375P-F11s, 500; HT-29, 500; SK-MEL-3, 500; and BT474, 3000. For 384-well assays (white full-area NUNC plates, cat. #781080), cells were plated in 48 μL at the following densities (cells/well): HN5, 500; Colo205, 500; SK-MEL-28, 500; A375P-F11s, 500; HT29, 500; SK-MEL-3, 500; and BT474, 2000.
(§3) The next day, compounds were diluted as follow: For 96-well assays, 13.5 μL of compound in DMSO were diluted using nine (9) serial 1:3 dilutions of 4.5 μL in 9 μL of DMSO. Medium (270 μl/well of RPMI with 10% FBS and 1% penicillin-streptomycin) was added to the plates. Aliquots (7 μl) were added to cells in the final assay giving a final DMSO concentration of 0.2%. For 384-well assays, 15 μL of compound in DMSO were diluted using nine (9) serial 1:3 dilutions of 5 μL in 10 μL of DMSO, followed by a further dilution of 5 μL of compound with 95 μL of medium, of which 2 μL were added to cells in the final assay giving a final DMSO concentration of 0.2%. Cells were incubated at 37° C., 5% CO2 for 3 days.
(§4) Total ATP was measured (as a surrogate estimate of cell number) using CellTiter-Glo® reagent (Promega G7571). Briefly, plates were removed from the incubator and allowed to equilibrate to room temperature for 30 minutes. CellTiter-Glo® (25 μL or 55 μL for 384-well or 96-well assays, respectively) reagent was added to each well and plates were shaken on an orbital plate shaker for 2 mins. Plates were incubated without shaking for a further 30 mins and read on an LJL Analyst GT reader in luminometer mode with an integration time of 0.5 seconds per well. Percent inhibition of cell growth was calculated relative to DMSO vehicle-treated control wells. Concentration of compound required to give 50% inhibition of vehicle-treated control cell growth (IC50) was interpolated using a 4-parameter fit for determining IC50 using the following equation: Y=A+((B−A)/(1+((C/X)̂D))) where X=IC50.

[4] = tested on: BT474 tumor cells; assay: Method C: Cell Growth Inhibition Assay (CellTiter-Glo), BT474; format: cell-based; conditions: Homo sapiens, BT-474, 72 h, 3 days, 4-parameter fit
[5] = tested on: Colo205 tumor cells; assay: Method C: Cell Growth Inhibition Assay (CellTiter-Glo), Colo205; format: cell-based; conditions: Homo sapiens, COLO 205, 72 h, 3 days, 4-parameter fit
Outline: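 500 cells/well; next-day compound, 1:3 serial dilutions, 0.2% DMSO final; 3 d, 37° C, 5% CO2. Readout: CellTiter-Glo luminescence (total ATP as cell-number surrogate). IC50 from 4-parameter fit of % growth inhibition vs vehicle.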

[6] = tested on: SK-MEL-28 tumor cells; assay: Method C: Cell Growth Inhibition Assay (CellTiter-Glo), SK-MEL-28; format: cell-based; conditions: Homo sapiens, SK-MEL-28, 72 h, 3 days, 4-parameter fit
Outline: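 Cells plated at 500 cells/well, dosed next day with 10-point 1:3 dilution series (0.2% final DMSO) and grown 3 days at 37 °C, 5% CO2. CellTiter-Glo luminescence (total ATP) served as cell-number surrogate; inhibition relative to DMSO controls, IC50 interpolated by 4-parameter fit.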

[7] = tested on: A375P F11s tumor cells; assay: Method C: Cell Growth Inhibition Assay (CellTiter-Glo), A375P F11s; format: cell-based; conditions: Homo sapiens, 72 h, 3 days, 4-parameter fit
Protocol: as §2, §3, §4

[8] = tested on: HT-29 tumor cells; assay: Method C: Cell Growth Inhibition Assay (CellTiter-Glo), HT-29; format: cell-based; conditions: Homo sapiens, HT-29, 72 h, 3 days, 4-parameter fit
Protocol: as §2, §3, §4

[9] = tested on: SK-MEL-3 tumor cells; assay: Method C: Cell Growth Inhibition Assay (CellTiter-Glo), SK-MEL-3; format: cell-based; conditions: Homo sapiens, SK-MEL3, 72 h, 3 days, 4-parameter fit
Protocol: as §2, §3, §4

T1 sequence (P00533 25-1210): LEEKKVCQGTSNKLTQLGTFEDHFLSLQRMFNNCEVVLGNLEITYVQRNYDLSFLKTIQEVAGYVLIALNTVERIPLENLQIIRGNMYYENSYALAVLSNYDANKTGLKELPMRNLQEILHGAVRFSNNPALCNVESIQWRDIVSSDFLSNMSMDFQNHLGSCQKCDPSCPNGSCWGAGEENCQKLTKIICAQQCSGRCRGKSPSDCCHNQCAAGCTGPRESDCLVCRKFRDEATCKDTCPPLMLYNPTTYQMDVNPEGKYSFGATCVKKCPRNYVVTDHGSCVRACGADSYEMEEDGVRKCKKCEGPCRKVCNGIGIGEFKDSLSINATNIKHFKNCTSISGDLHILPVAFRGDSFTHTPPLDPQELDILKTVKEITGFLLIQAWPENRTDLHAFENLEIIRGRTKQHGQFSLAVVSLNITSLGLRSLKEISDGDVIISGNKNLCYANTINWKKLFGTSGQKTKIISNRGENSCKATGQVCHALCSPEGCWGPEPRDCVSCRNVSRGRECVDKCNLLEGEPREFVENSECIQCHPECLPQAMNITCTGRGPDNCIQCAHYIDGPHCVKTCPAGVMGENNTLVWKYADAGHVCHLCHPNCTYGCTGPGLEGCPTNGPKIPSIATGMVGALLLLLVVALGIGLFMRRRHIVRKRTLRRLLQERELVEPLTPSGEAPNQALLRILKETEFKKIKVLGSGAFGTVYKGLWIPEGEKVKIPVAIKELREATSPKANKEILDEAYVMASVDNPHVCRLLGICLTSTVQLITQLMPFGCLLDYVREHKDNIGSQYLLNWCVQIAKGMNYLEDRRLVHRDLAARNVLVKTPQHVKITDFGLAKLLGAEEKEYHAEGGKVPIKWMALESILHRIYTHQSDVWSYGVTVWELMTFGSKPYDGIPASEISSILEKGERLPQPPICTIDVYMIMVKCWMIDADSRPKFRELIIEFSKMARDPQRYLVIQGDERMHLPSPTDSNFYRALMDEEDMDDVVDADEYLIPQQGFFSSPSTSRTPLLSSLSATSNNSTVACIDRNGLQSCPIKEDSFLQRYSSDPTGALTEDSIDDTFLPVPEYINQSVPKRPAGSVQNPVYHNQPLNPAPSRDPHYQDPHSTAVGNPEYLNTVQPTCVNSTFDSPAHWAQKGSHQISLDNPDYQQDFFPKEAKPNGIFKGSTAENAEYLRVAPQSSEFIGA

## COc1ccc(Nc2nccc(-c3sc(N)nc3-c3cccc(NC(=O)c4c(F)cccc4F)c3)n2)cc1OCCN(C)C [Example 2]
[1]
  IC50: < 100 nM
[2]
  IC50: < 100 nM
[3]
  IC50: < 100 nM
[4]
  IC50: < 100 nM
[5]
  IC50: < 100 nM
[6]
  IC50: 100 to 1000 nM
[7]
  IC50: 100 to 1000 nM
[8]
  IC50: 100 to 1000 nM
[9]
  IC50: 100 to 1000 nM

## CN(C)CCOc1ccc(Nc2nccc(-c3sc(NCCCN4CCOCC4)nc3-c3cccc(NC(=O)c4c(F)cccc4F)c3)n2)cc1Cl [Example 4, N-[3-(5-{2-[(3-Chloro-4-{[2-(dimethylamino)ethyl]oxy}phenyl)-amino]-4-pyrimidinyl}-2-{[3-(4-morpholinyl)propyl]amino}-1,3-thiazol-44)phenyl]-2,6-difluorobenzamide]
[1]
  IC50: < 100 nM
[2]
  IC50: < 100 nM
[3]
  IC50: 100 to 1000 nM
[4]
  IC50: 100 to 1000 nM
[5]
  IC50: 100 to 1000 nM
[6]
  IC50: 100 to 1000 nM
[7]
  IC50: 100 to 1000 nM
[8]
  IC50: 100 to 1000 nM
[9]
  IC50: 100 to 1000 nM

## CN(C)CCOc1ccc(Nc2nccc(-c3sc(N)nc3-c3cccc(NC(=O)c4c(F)cccc4F)c3)n2)cc1Cl [Example 5, N-(3-{2-Amino-5-[2-({3-chloro-4-[2-(dimethylamino)ethoxy]-phenyl}amino)pyrimidin-4-yl]-1,3-thiazol-4-yl}phenyl)-2,6-difluorobenzamide-formic acid]
[1]
  IC50: < 100 nM
[2]
  IC50: < 100 nM
[3]
  IC50: < 100 nM
[4]
  IC50: < 100 nM
[5]
  IC50: 100 to 1000 nM
[6]
  IC50: 100 to 1000 nM
[7]
  IC50: 100 to 1000 nM
[8]
  IC50: 100 to 1000 nM
[9]
  IC50: 100 to 1000 nM

## CN1CCc2ccc(Nc3nccc(-c4sc(N)nc4-c4cccc(NC(=O)c5c(F)cccc5F)c4)n3)cc2C1 [Example 10, trifluoroacetate]
[1]
  IC50: < 100 nM
[2]
  IC50: < 100 nM
[3]
  IC50: < 100 nM
[4]
  IC50: < 100 nM
[5]
  IC50: 100 to 1000 nM
[6]
  IC50: 100 to 1000 nM
[7]
  IC50: 100 to 1000 nM
[8]
  IC50: 100 to 1000 nM
[9]
  IC50: 100 to 1000 nM

## COc1ccc(Nc2nccc(-c3sc(N)nc3-c3cccc(NC(=O)c4c(F)cccc4F)c3)n2)cc1N1CCN(C)CC1 [Example 11, N-{3-[2-Amino-5-(2-{[4-(methyloxy)-3-(4-methyl-1-piperazinyl)phenyl]amino}-4-pyrimidinyl)-1,3-thiazol-4-yl]phenyl}-2,6-difluorobenzamide trifluoroacetate]
[1]
  IC50: < 100 nM
[2]
  IC50: < 100 nM
[3]
  IC50: < 100 nM
[4]
  IC50: < 100 nM
[5]
  IC50: 100 to 1000 nM
[6]
  IC50: < 100 nM
[7]
  IC50: 100 to 1000 nM
[8]
  IC50: 100 to 1000 nM
[9]
  IC50: 100 to 1000 nM

## CN(C)C1Cc2ccc(Nc3nccc(-c4sc(N)nc4-c4cccc(NC(=O)c5c(F)cccc5F)c4)n3)cc2C1 (stereo not drawn) [Example 12, N-{3-[2-Amino-5-(2-{[2-(dimethylamino)-2,3-dihydro-1H-indeN-5-yl]amino}-4-pyrimidinyl)-1,3-thiazol-4-yl]phenyl}-2,6-difluorobenzamide]
[1]
  IC50: < 100 nM
[2]
  IC50: < 100 nM
[3]
  IC50: < 100 nM
[4]
  IC50: < 100 nM
[5]
  IC50: 100 to 1000 nM
[6]
  IC50: > 1000 nM
[7]
  IC50: 100 to 1000 nM
[8]
  IC50: 100 to 1000 nM
[9]
  IC50: 100 to 1000 nM
